Here are results for 14 compounds from ChEMBL document CHEMBL5321204, “Hybrids of delavirdine and piperdin-4-yl-aminopyrimidines (DPAPYs) as potent HIV-1 NNRTIs: Design, synthesis and biological activities” (Eur J Med Chem, 2023).

The test system of series [1] is Human immunodeficiency virus 2. In words: Antiviral activity against HIV-2 ROD infected in human MT4 cells assessed as protection against virus induced cytopathic effect and measured after 5 days by MTT spectrophotometric assay. Format: functional, organism-based. Conditions: Human immunodeficiency virus 2, ROD, MT4, 120 h.
Series [2] in a line: Cytotoxicity against human MT4 cells assessed as reduction in cell viability incubated for 5 days by MTT spectrophotometric assay. Format: toxicity, cell-based. To be noted: time 5 day.
Series [3] has as its target Human immunodeficiency virus type 1 reverse transcriptase (Human immunodeficiency virus 1, UniProt Q72547). The series can be described thus: Inhibition of HIV-1 reverse transcriptase using [2,8-3H]dGTP as substrate by […] assay.
In series [4] the test system is Human immunodeficiency virus 1. The series can be described thus: Antiviral activity against HIV-1 L100I mutant infected in human MT4 cells assessed as protection against virus induced cytopathic effect and measured after 5 days by MTT spectrophotometric assay. It counts as functional, organism-based. To be noted: Human immunodeficiency virus 1, MT4, 120 h.
Series [5] concerns Human immunodeficiency virus 1. The series can be described thus: Antiviral activity against HIV-1 K103 N mutant infected in human MT4 cells assessed as protection against virus induced cytopathic effect and measured after 5 days by MTT spectrophotometric assay. To be noted: Human immunodeficiency virus 1, MT4, 120 h. Format: functional, organism-based.
The subject of series [6] is Human immunodeficiency virus 1. The series can be described thus: Antiviral activity against HIV-1 Y181C mutant infected in human MT4 cells assessed as protection against virus induced cytopathic effect and measured after 5 days by MTT spectrophotometric assay. Format: functional, organism-based. To be noted: Human immunodeficiency virus 1, MT4, 120 h.
Series [7] concerns Human immunodeficiency virus 1. In words: Antiviral activity against HIV-1 Y188L mutant infected in human MT4 cells assessed as protection against virus induced cytopathic effect and measured after 5 days by MTT spectrophotometric assay. To be noted: Human immunodeficiency virus 1, MT4, 120 h. It counts as functional, organism-based.
For series [8], the system named is Human immunodeficiency virus 1. In words: Antiviral activity against HIV-1 E138K mutant infected in human MT4 cells assessed as protection against virus induced cytopathic effect and measured after 5 days by MTT spectrophotometric assay. It counts as functional, organism-based. To be noted: Human immunodeficiency virus 1, MT4, 120 h.
Series [9] concerns Human immunodeficiency virus 1. In words: Antiviral activity against HIV-1 RES056 mutant infected in human MT4 cells assessed as protection against virus induced cytopathic effect and measured after 5 days by MTT spectrophotometric assay. It counts as functional, organism-based. To be noted: Human immunodeficiency virus 1, MT4, 120 h.
The test system of series [10] is Human immunodeficiency virus 1. In words: Antiviral activity against HIV-1 F227L-V106A mutant infected in human MT4 cells assessed as protection against virus induced cytopathic effect and measured after 5 days by MTT spectrophotometric assay. It counts as functional, organism-based. To be noted: Human immunodeficiency virus 1, MT4, 120 h.
Another series is described as follows: in vitro. To be noted: human, MT4 cells.
Series [11] has as its system Human immunodeficiency virus 1. The series can be described thus: microbe, parasite or virus in culture. To be noted: Human immunodeficiency virus 1, IIIb, MT4, 120 h.
Description: Antiviral activity against HIV-1 IIIb infected in human MT4 cells assessed as protection against virus induced cytopathic effect and measured after 5 days by MTT spectrophotometric assay

Description for in vitro: Selectivity index, ratio of CC50 for cytotoxicity against human MT4 cells assessed as reduction in cell viability to EC50 for antiviral activity against HIV-1 IIIb infected in human MT4 cells assessed as reduction in virus induced cytopathic effect

For `Cc1cc(C#N)cc(C)c1Oc1ccnc(NC2CCN(C(=O)c3cc4cc(NS(C)(=O)=O)ccc4[nH]3)CC2)n1`, the EC50 is above 25 µM in [1]; 1.8 µM in series [4]; 0.54 µM in series [5]; 0.73 µM in [6]; 3.8 µM in series [7]; 0.21 µM in series [8]. The EC50 in [9] was above 25 µM; in [10], 3.6 µM; in series [11], 0.036 µM. Besides, the CC50 at 120 h in [2] is 25 µM. In addition, inhibition in series [3] was half-maximal at 0.13 µM (IC50). Besides, the selectivity ratio in “in vitro” was 686.
`Cc1cc(C)c(Oc2ccnc(NC3CCN(C(=O)c4cc5cc(NS(C)(=O)=O)ccc5[nH]4)CC3)n2)c(C)c1`: the EC50 is above 19 µM in series [1]; 1.1 µM in series [4]; 0.12 µM in series [5]; 0.36 µM in series [6]; 0.75 µM in [7]; 0.033 µM in series [8]. The values for the EC50 in [9], in [10] and in series [11] were above 19 µM, 3.06 µM and 0.009 µM, respectively. In [2], the CC50 at 120 h turned out to be 19 µM. The compound further returned an IC50 in series [3] of 0.11 µM. Further, the selectivity ratio in the series “in vitro” was determined as 2150.
As to `Cc1cc(Oc2ccnc(NC3CCN(C(=O)c4cc5cc(NS(C)(=O)=O)ccc5[nH]4)CC3)n2)cc(C)c1Cl`, the EC50 in series [1], in series [4], in series [5], in [6], in [7] and in series [8] was above 5.3 µM throughout. In addition, the EC50 in series [9] is above 5.3 µM; in [10], above 5.3 µM; in series [11], 1.3 µM. The CC50 at 120 h in series [2] turned out to be 5.3 µM. Besides, inhibition in series [3] was half-maximal at 3 µM (IC50). In addition, the selectivity ratio in “in vitro” worked out at 4.
For the compound `Cc1cccc(C)c1Oc1ccnc(NC2CCN(C(=O)c3cc4cc(NS(C)(=O)=O)ccc4[nH]3)CC2)n1`, the EC50 in series [1] was above 21 µM; in series [4], 3.3 µM; in series [5], 0.52 µM; in series [6] it was 0.84 µM; in series [7], 0.67 µM; in series [8], 0.08 µM. In addition, the values for the EC50 in series [9], in [10] and in series [11] were above 21 µM, 2.7 µM and 0.032 µM, respectively. In addition, in series [2], the CC50 at 120 h stood at 21 µM. In addition, the midpoint of inhibition in series [3], the IC50, lay at 12 µM. The selectivity ratio in the series “in vitro” was 678.
Take `CS(=O)(=O)Nc1ccc2[nH]c(C(=O)N3CCC(Nc4nccc(Oc5ccc(C#N)cc5)n4)CC3)cc2c1`: the EC50 was above 192 µM in series [1]; above 192 µM in series [4]; above 192 µM in [5]; above 192 µM in series [6]; above 192 µM in [7]; 7.3 µM in series [8]. Further, the EC50 in [9] was above 192 µM; in series [10] it was above 192 µM; in series [11], 3.1 µM. The CC50 at 120 h in series [2] came out at 192 µM. This compound also gave an IC50 in series [3] of 1.1 µM. Moreover, in the series “in vitro”, the selectivity ratio was 62.
Turning to `Cc1ccccc1Oc1ccnc(NC2CCN(C(=O)c3cc4cc(NS(C)(=O)=O)ccc4[nH]3)CC2)n1`, the EC50 in series [1] is above 13 µM; in series [4], above 13 µM; in series [5], 8.7 µM; in series [6], 9 µM; in series [7] it was above 13 µM; in series [8], 1 µM. For the same compound, the EC50 in series [9] is above 13 µM; in series [10], above 13 µM; in series [11], 0.33 µM. The CC50 at 120 h in series [2] is 13 µM. In addition, it took 8.6 µM to reach half-maximal inhibition in [3] (IC50). The selectivity ratio in “in vitro” is 41.
Regarding `CS(=O)(=O)Nc1ccc2[nH]c(C(=O)N3CCC(Nc4nccc(Oc5ccc(Br)cc5F)n4)CC3)cc2c1`, the EC50 in series [1] is above 80 µM; in series [4] it was 32 µM; in series [5], 23 µM; in series [6], 29 µM; in [7], above 80 µM; in series [8] it was 3 µM. Also, the figures for the EC50 in series [9], in series [10] and in series [11] were above 80 µM, above 80 µM and 0.94 µM, respectively. Moreover, the CC50 at 120 h in series [2] was found to be 80 µM. Besides, the IC50 in series [3] came out at 0.11 µM. Besides, the selectivity ratio in “in vitro” came out at 84.
With `Cc1cccc(Oc2ccnc(NC3CCN(C(=O)c4cc5cc(NS(C)(=O)=O)ccc5[nH]4)CC3)n2)c1`, the 50% effective concentration (EC50) in series [1], in series [4], in series [5], in series [6], in series [7] and in series [8] was above 27 µM in each case. Moreover, the EC50 in [9] was above 27 µM; in series [10], above 27 µM; in series [11], 5.5 µM. Also, the CC50 at 120 h in [2] amounted to 27 µM. In [3], inhibition was half-maximal at 1.2 µM (IC50). Besides, the selectivity ratio in the series “in vitro” came to 5.
`CS(=O)(=O)Nc1ccc2[nH]c(C(=O)N3CCC(Nc4nccc(Oc5cccc(C#N)c5)n4)CC3)cc2c1`: the half-maximal effective concentration (EC50) in [1] is above 29 µM; in series [4], above 29 µM; in series [5] it was above 29 µM; in [6], above 29 µM; in series [7] it was above 29 µM; in [8] it was 8.7 µM. The 50% effective concentration (EC50) in series [9] was above 29 µM; in series [10], above 28 µM; in [11], 3.7 µM. The CC50 at 120 h in series [2] came to 29 µM. This compound showed an IC50 in series [3] of 0.6 µM. In “in vitro”, the selectivity ratio was 8.
As to `O=C1Nc2ccc(Cl)cc2[C@@](C#CC2CC2)(C(F)(F)F)O1` [EFAVIRENZ], in series [2], the CC50 at 120 h was above 6.3 µM. Further, the 50% effective concentration (EC50) in series [4] turned out to be 0.067 µM; in series [5], 0.14 µM; in [7], 0.32 µM; in [8], 0.007 µM; in series [9], 0.57 µM; in series [10], 0.41 µM.
For `Cc1cc(C#N)cc(C)c1Oc1nc(Nc2ccc(C#N)cc2)nc(N)c1Br` [ETRAVIRINE], in series [2], the CC50 at 120 h is above 4.6 µM. Further, the EC50 in series [4] worked out at 0.012 µM; in series [5] it was 0.004 µM; in series [7] it was 0.03 µM; in series [8] it was 0.017 µM; in series [9] it was 0.1 µM; in [10], 0.03 µM. The selectivity ratio in “in vitro” was above 1430.
In the case of `Nc1ccn([C@@H]2CS[C@H](CO)O2)c(=O)n1` [LAMIVUDINE], in series [2], the CC50 at 120 h is above 87 µM. Further, the EC50 is 1.7 µM in [4]; 4.7 µM in series [5]; 3.5 µM in series [6]; 4.1 µM in [7]; 7.4 µM in series [8]; 10 µM in series [9]. Besides, the figures for the EC50 in series [10] and in series [11] were 8.2 µM and 8.3 µM, respectively. Moreover, the selectivity ratio in the series “in vitro” was above 11.
Regarding `Cc1ccnc2c1NC(=O)c1cccnc1N2C1CC1` [NEVIRAPINE], in series [2], the CC50 at 120 h is above 15 µM. Moreover, the EC50 is 2.2 µM in [4]; 7.4 µM in [5]; above 15 µM in series [7]; 0.31 µM in series [8]; above 15 µM in series [9]; above 15 µM in series [10]. Besides, the EC50 in series [11] worked out at 0.19 µM.
Turning to `Cc1cn([C@H]2C[C@H](N=[N+]=[N-])[C@@H](CO)O2)c(=O)[nH]c1=O` [ZIDOVUDINE], the EC50 was found to be 0.021 µM in [1]; 0.009 µM in series [4]; 0.032 µM in series [5]; 0.019 µM in series [6]; 0.023 µM in [7]; 0.035 µM in series [9]. The EC50 in [10] was 0.026 µM; in series [11] it was 0.024 µM. Moreover, the CC50 at 120 h in series [2] was above 7.1 µM. For the same compound, in “in vitro”, the selectivity ratio is above 290.
